Data on 34 molecules can be found in publication PMC11995724, “Antibiotic target discovery by integrated phenotypic and activity-based profiling of electrophilic fragments” (Cell chemical biology, 2025).

Structures can show the parent of a compound that is named as a salt.

The nature of the data set: in vitro. The settings on record: human, hek293t cells.
Usually viability stands for a read-out of living cells in per cent, often relative to untreated cells. Take `CC(Cl)C(=O)NCCn1cccc1` (stereo not shown) [7-G21, 2-chloro-N-[2-(1H-pyrrol-1-yl)ethyl]propanamide]: the viability at 48 h, 25 µM worked out at 87.8%.

Consider `CC(Cl)C(=O)N1CCc2c(nnn2C)C1` (stereo not shown) [7-G22, 2-chloro-1-{1-methyl-1H,4H,5H,6H,7H-[1,2,3]triazolo[4,5-c]pyridin-5-yl}propan-1-one], for which the viability at 48 h, 25 µM stood at 80.5%.

On to `O=C(CCl)NCC1CN(Cc2ccccc2)CC12CCC2` (stereo not shown) [7-H03, N-({6-benzyl-6-azaspiro[3.4]octan-8-yl}methyl)-2-chloroacetamide hydrochloride], for which the viability at 48 h, 25 µM came out at 0.629%.

For the molecule `O=C(CCl)NC1CCN(Cc2cscn2)CC1` [7-H04, 2-chloro-N-{1-[(1,3-thiazol-4-yl)methyl]piperidin-4-yl}acetamide hydrochloride], the viability at 48 h, 25 µM stood at 0.789%.

In the case of `CC(Cl)C(=O)NC1CCc2cnn(C(C)C)c2C1` (stereo not shown) [7-H05, 2-chloro-N-[1-(propan-2-yl)-4,5,6,7-tetrahydro-1H-indazol-6-yl]propanamide], the viability at 48 h, 25 µM amounted to 107%.

Turning to `O=C(CCl)NC1CCS(=O)(=O)c2ccc(F)cc21` (stereo not shown) [7-H06, 2-chloro-N-(6-fluoro-1,1-dioxo-3,4-dihydro-2H-1lambda6-benzothiopyran-4-yl)acetamide], the viability at 48 h, 25 µM amounted to 1.04%.

As for `COc1cc(CC2CN(C(=O)C(C)Cl)C2)cc(OC)c1` (stereo not shown) [7-H07, 2-chloro-1-{3-[(3,5-dimethoxyphenyl)methyl]azetidin-1-yl}propan-1-one], the viability at 48 h, 25 µM was found to be 97.3%.

On to `O=C(CCl)NCc1ccnn1C1CCCC1` [7-H08, 2-chloro-N-[(1-cyclopentyl-1H-pyrazol-5-yl)methyl]acetamide], for which the viability at 48 h, 25 µM is 0.996%.

`Cc1c(C(=O)N2CCN(C(=O)C(C)Cl)CC2)sc2ccccc12` (stereo not shown) [7-H09, 2-chloro-1-[4-(3-methyl-1-benzothiophene-2-carbonyl)piperazin-1-yl]propan-1-one]: the viability at 48 h, 25 µM came to 88.8%.

Consider `O=C(CCl)NCc1ccn(Cc2ccccc2)n1` [7-H10, N-[(1-benzyl-1H-pyrazol-3-yl)methyl]-2-chloroacetamide], for which the viability at 48 h, 25 µM amounted to 0.654%.

Take `CC(Cl)C(=O)N1CCCC1c1nc(-c2ccccc2)c(C(C)C)o1` (stereo not shown) [7-H11, 2-chloro-1-{2-[4-phenyl-5-(propan-2-yl)-1,3-oxazol-2-yl]pyrrolidin-1-yl}propan-1-one]: the viability at 48 h, 25 µM came to 79.2%.

Regarding `CC(c1ccc(S(N)(=O)=O)cc1)N(C)C(=O)CCl` (stereo not shown) [7-H12, 2-chloro-N-methyl-N-[1-(4-sulfamoylphenyl)ethyl]acetamide], the viability at 48 h, 25 µM stood at 0.618%.

Consider `CC(Cl)C(=O)NC(CC1CCCCC1)c1ncccn1` (stereo not shown) [7-H13, 2-chloro-N-[2-cyclohexyl-1-(pyrimidin-2-yl)ethyl]propanamide], for which the viability at 48 h, 25 µM turned out to be 91.2%.

As to `Cc1ccc(N2CCCC2CNC(=O)CCl)cc1` (stereo not shown) [7-H14, 2-chloro-N-{[1-(4-methylphenyl)pyrrolidin-2-yl]methyl}acetamide], the viability at 48 h, 25 µM was found to be 4.76%.

Take `CC(Cl)C(=O)N(C)CCn1c(=O)oc2ccccc21` (stereo not shown) [7-H15, 2-chloro-N-methyl-N-[2-(2-oxo-2,3-dihydro-1,3-benzoxazol-3-yl)ethyl]propanamide]: the viability at 48 h, 25 µM came to 102%.

In the case of `O=C(CCl)NCCc1c[nH]c2c(F)c(F)c(F)cc12` [7-H16, 2-chloro-N-[2-(5,6,7-trifluoro-1H-indol-3-yl)ethyl]acetamide], the viability at 48 h, 25 µM worked out at 1.21%.

With `CC(Cl)C(=O)N1CCC(n2nnc3c2CCCC3)CC1` (stereo not shown) [7-H17, 2-chloro-1-[4-(4,5,6,7-tetrahydro-1H-1,2,3-benzotriazol-1-yl)piperidin-1-yl]propan-1-one], the viability at 48 h, 25 µM amounted to 90%.

For `COc1cc(CN(C(=O)CCl)C2CC2)ccc1O` [7-H18, 2-chloro-N-cyclopropyl-N-[(4-hydroxy-3-methoxyphenyl)methyl]acetamide], the viability at 48 h, 25 µM is 0.647%.

As for `CC(Cl)C(=O)NCCC1(CO)CC1` (stereo not shown) [7-H19, 2-chloro-N-{2-[1-(hydroxymethyl)cyclopropyl]ethyl}propanamide], the viability at 48 h, 25 µM is 90.1%.

Take `CCN(Cc1ccc(C(F)(F)F)cc1)C(=O)CCl` [7-H20, 2-chloro-N-ethyl-N-{[4-(trifluoromethyl)phenyl]methyl}acetamide]: the viability at 48 h, 25 µM amounted to 0.708%.

Turning to `Cc1cc(CC(C)NC(=O)C(C)Cl)n(-c2ccccc2)n1` (stereo not shown) [7-H21, 2-chloro-N-[1-(3-methyl-1-phenyl-1H-pyrazol-5-yl)propan-2-yl]propanamide], the viability at 48 h, 25 µM is 80.1%.

For `COc1cc(C(C)NC(=O)CCl)sn1` (stereo not shown) [7-H22, 2-chloro-N-[1-(3-methoxy-1,2-thiazol-5-yl)ethyl]acetamide], the viability at 48 h, 25 µM stood at 0.822%.

For `CC(Cl)C(=O)N1CC(OCc2cccc3ccccc23)C1` (stereo not shown) [7-I03, 2-chloro-1-{3-[(naphthalen-1-yl)methoxy]azetidin-1-yl}propan-1-one], the viability at 48 h, 25 µM is 96.3%.

For the molecule `CC(Cl)C(=O)N1CC(Cc2cccs2)C1` (stereo not shown) [7-I04, 2-chloro-1-{3-[(thiophen-2-yl)methyl]azetidin-1-yl}propan-1-one], the viability at 48 h, 25 µM was found to be 88.8%.

In the case of `CC(Cl)C(=O)NCC1=CCCOC1` (stereo not shown) [7-I05, 2-chloro-N-[(5,6-dihydro-2H-pyran-3-yl)methyl]propanamide], the viability at 48 h, 25 µM came out at 89.9%.

Take `COCc1noc(CN2CCN(C(=O)C(C)Cl)CC2)n1` (stereo not shown) [7-I06, 2-chloro-1-(4-{[3-(methoxymethyl)-1,2,4-oxadiazol-5-yl]methyl}piperazin-1-yl)propan-1-one]: the viability at 48 h, 25 µM was determined as 88.7%.

Turning to `CCOC(=O)c1c2c(nn1C)CCN(C(=O)C(C)Cl)C2` (stereo not shown) [7-I07, ethyl 5-(2-chloropropanoyl)-2-methyl-2H,4H,5H,6H,7H-pyrazolo[4,3-c]pyridine-3-carboxylate], the viability at 48 h, 25 µM is 92.6%.

For `CC(Cl)C(=O)N1CCN(C)C(c2nc(C3CC3)no2)C1` (stereo not shown) [7-I08, 2-chloro-1-[3-(3-cyclopropyl-1,2,4-oxadiazol-5-yl)-4-methylpiperazin-1-yl]propan-1-one], the viability at 48 h, 25 µM came to 84.4%.

Consider `CC(Cl)C(=O)N1CCCC1c1nc(-c2ccccc2)n[nH]1` (stereo not shown) [7-I09, 2-chloro-1-[2-(3-phenyl-1H-1,2,4-triazol-5-yl)pyrrolidin-1-yl]propan-1-one], for which the viability at 48 h, 25 µM stood at 86.8%.

As for `Cc1ccnc(-c2n[nH]c(C(C)NC(=O)C(C)Cl)n2)c1` (stereo not shown) [7-I10, 2-chloro-N-{1-[3-(4-methylpyridin-2-yl)-1H-1,2,4-triazol-5-yl]ethyl}propanamide], the viability at 48 h, 25 µM was found to be 71.1%.

In the case of `COC1CCN(c2ccc(F)cc2CN(C)C(=O)C(C)Cl)CC1` (stereo not shown) [7-I11, 2-chloro-N-{[5-fluoro-2-(4-methoxypiperidin-1-yl)phenyl]methyl}-N-methylpropanamide], the viability at 48 h, 25 µM was 94.9%.

Take `CC(Cl)C(=O)N1CCN(c2nnnn2-c2ccccc2)CC1` (stereo not shown) [7-I12, 2-chloro-1-[4-(1-phenyl-1H-1,2,3,4-tetrazol-5-yl)piperazin-1-yl]propan-1-one]: the viability at 48 h, 25 µM stood at 74.2%.

As for `CC(Cl)C(=O)NCc1ccon1` (stereo not shown) [7-I13, 2-chloro-N-[(1,2-oxazol-3-yl)methyl]propanamide], the viability at 48 h, 25 µM is 94.7%.

Take `CC(Cl)C(=O)NCc1noc2ccccc12` (stereo not shown) [7-I14, N-[(1,2-benzoxazol-3-yl)methyl]-2-chloropropanamide]: the viability at 48 h, 25 µM came to 77.8%.
